Tests used:
[1] = molecular target: Disintegrin and metalloproteinase domain-containing protein 17 (Mus musculus, UniProt Q9Z0F8); test: Inhibition of TACE in mouse RAW264.7 cells assessed as inhibition of LPS-stimulated TNFalpha production pretreated for 1 hr followed by LPS stimulation for 4 hrs by ELISA; assay type: cell-based; conditions: read-out: IC50
[2] = molecular target: T1, Disintegrin and metalloproteinase domain-containing protein 17 (Homo sapiens, UniProt P78536); test: Inhibition of recombinant human TACE catalytic domain using Mca-Pro-Leu-Ala-Gln-Ala-Val-Dpa-Arg-Ser-Ser-Ser-Arg-NH2 as substrate after 2 hrs by fluorescence assay
[3] = molecular target: T1, Disintegrin and metalloproteinase domain-containing protein 17; test: Inhibition of recombinant TACE catalytic domain (unknown origin) using Abz-LAQAVRSSSR-Dpa as substrate preincubated for 10 mins followed by substrate addition measured after 10 mins by FRET assay

Sequence of Disintegrin and metalloproteinase domain-containing protein 17 (Mus musculus, UniProt Q9Z0F8) (Q9Z0F8 whole entry, the tested form may be a part): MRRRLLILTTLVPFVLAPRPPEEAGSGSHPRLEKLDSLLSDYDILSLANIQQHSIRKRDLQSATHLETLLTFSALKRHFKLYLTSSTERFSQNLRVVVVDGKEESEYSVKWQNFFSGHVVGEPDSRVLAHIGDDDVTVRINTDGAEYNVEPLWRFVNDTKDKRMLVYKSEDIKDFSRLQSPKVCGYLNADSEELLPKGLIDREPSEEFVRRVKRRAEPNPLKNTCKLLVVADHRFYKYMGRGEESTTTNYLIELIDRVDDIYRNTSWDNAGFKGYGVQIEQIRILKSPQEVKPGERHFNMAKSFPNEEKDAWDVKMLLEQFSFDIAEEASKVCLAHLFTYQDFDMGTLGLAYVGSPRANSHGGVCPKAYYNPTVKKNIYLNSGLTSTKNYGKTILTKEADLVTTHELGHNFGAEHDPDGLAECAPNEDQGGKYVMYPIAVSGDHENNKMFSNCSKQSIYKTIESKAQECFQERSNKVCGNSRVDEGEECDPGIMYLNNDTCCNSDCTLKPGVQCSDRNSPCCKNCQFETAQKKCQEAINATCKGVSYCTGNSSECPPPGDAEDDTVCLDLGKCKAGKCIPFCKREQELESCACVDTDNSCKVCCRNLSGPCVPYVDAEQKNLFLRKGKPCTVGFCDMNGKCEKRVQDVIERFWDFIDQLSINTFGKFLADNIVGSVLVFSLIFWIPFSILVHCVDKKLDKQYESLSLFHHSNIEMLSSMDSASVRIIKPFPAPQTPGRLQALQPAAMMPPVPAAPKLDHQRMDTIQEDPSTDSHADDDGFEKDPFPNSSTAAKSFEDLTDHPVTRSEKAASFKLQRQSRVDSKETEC
T1 sequence (P78536 whole entry, the tested form may be a part): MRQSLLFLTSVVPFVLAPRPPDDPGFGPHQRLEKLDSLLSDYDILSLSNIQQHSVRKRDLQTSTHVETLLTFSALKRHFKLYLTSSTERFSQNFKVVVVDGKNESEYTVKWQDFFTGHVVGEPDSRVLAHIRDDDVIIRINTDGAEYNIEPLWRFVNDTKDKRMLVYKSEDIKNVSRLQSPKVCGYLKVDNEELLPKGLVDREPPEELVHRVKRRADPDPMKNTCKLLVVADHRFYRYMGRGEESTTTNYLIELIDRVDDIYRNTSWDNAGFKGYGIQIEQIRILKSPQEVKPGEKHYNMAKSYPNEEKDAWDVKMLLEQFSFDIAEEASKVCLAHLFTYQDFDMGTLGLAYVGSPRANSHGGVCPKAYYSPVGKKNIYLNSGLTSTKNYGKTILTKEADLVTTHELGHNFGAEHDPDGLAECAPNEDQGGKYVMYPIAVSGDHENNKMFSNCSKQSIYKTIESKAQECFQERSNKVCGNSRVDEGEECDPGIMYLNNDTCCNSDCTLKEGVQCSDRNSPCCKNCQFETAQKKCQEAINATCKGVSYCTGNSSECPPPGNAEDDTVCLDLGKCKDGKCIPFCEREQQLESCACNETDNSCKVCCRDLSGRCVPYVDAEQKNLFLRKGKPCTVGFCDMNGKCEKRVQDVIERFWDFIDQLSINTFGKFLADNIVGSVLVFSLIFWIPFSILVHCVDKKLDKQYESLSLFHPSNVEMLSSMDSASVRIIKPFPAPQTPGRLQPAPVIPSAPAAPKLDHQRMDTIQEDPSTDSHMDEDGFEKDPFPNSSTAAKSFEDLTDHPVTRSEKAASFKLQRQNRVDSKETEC

Compound | IC50 [1] [nM] | IC50 [2] [nM] | IC50 ([3]; read-out: IC50) [nM] | IC50 ([3]; read-out: pIC50 (converted)) [nM]
Cc1cc(COc2ccc(S(=O)(=O)N(C)[C@@H]3CCOC[C@@H]3C(=O)NO)cc2)c2ccccc2n1 (relative stereo) | 1000 |  |  | 
CC(=O)N1CCCN(S(=O)(=O)c2ccc(OCc3cc(C)nc4ccccc34)cc2)CC1C(=O)NO (centres undefined) |  | 200 |  | 
Cc1cc(COc2ccc(S(=O)(=O)N[C@@H]3CCN(C=O)C[C@@H]3C(=O)NO)cc2)c2ccccc2n1 | 7 |  |  | 
Cc1cc(COc2ccc(S(=O)(=O)N[C@@H]3CCC[C@]3(C)C(=O)NO)cc2)c2ccccc2n1 | 270 |  | 0.6 | 
Cc1cc(COc2ccc(S(=O)(=O)N(C)C3C(C(=O)NO)[C@@H]4CC[C@H]3O4)cc2)c2ccccc2n1 (relative stereo; form 1) | 250 |  | 43 | 
Cc1cc(COc2ccc(S(=O)(=O)N(C)[C@@H]3COC[C@@H]3C(=O)NO)cc2)c2ccccc2n1 (relative stereo) | 930 |  |  | 1.26
Cc1cc(COc2ccc(S(=O)(=O)N[C@H]3CCCC[C@@H]3C(=O)NO)cc2)c2ccccc2n1 (relative stereo) | 60 |  | 1.8 | 
Cc1cc(COc2ccc(S(=O)(=O)N[C@@H]3CN(C(=O)NC(C)(C)C)CC[C@@H]3C(=O)NO)cc2)c2ccccc2n1 | 58 |  |  | 1.26
Cc1cc(COc2ccc(S(=O)(=O)N[C@H]3CCN(C(=O)NC(C)(C)C)C[C@H]3C(=O)NO)cc2)c2ccccc2n1 (relative stereo) | 30 |  | 0.6 | 
Cc1cc(COc2ccc(S(=O)(=O)N[C@@H]3COC[C@@H]3C(=O)NO)cc2)c2ccccc2n1 | 12 |  |  | 0.631
CCC1(C(=O)NO)CCN(S(=O)(=O)c2ccc(OCc3cc(C)nc4ccccc34)cc2)C1 (centres undefined) |  | 16 |  | 
CC(=O)N1C[C@H](S(=O)(=O)c2ccc(OCc3cc(C)nc4c3CCCC4)cc2)C[C@@H]1C(=O)NO |  | > 10000 |  | 
Cc1cc(COc2ccc(C(=O)N3CCC(C(=O)NO)C3)cc2)c2c(n1)CCCC2 (centres undefined) |  | 6500 |  | 
CCNC(=O)N1C[C@H](C(=O)NO)[C@H](NS(=O)(=O)c2ccc(OCc3cc(C)nc4ccccc34)cc2)C1 (relative stereo) | 51 |  |  | 1.26
Cc1cc(COc2ccc(S(=O)(=O)N(C)[C@@H]3CCC[C@@H]3C(=O)NO)cc2)c2ccccc2n1 (relative stereo) | 93 |  | 0.6 | 
CC(=O)N1CCN(S(=O)(=O)c2ccc(OCc3cc(C)nc4c3CCCC4)cc2)CC1(C)C(=O)NO (centres undefined) |  | 30 |  | 
CC(=O)N1CCN(C(=O)c2ccc(OCc3cc(C)nc4c3CCCC4)cc2)CC1C(=O)NO (centres undefined) |  | 760 |  | 

Compound | IC50 [1] [nM] | IC50 [2] [nM] | IC50 ([3]; read-out: IC50) [nM] | IC50 ([3]; read-out: pIC50 (converted)) [nM]
CC(=O)N1CCC(NS(=O)(=O)c2ccc(OCc3cc(C)nc4ccccc34)cc2)C(C(=O)NO)C1 (centres undefined) | 20 |  |  | 1
Cc1cc(COc2ccc(S(=O)(=O)N[C@@H]3CCN(S(=O)(=O)C(C)C)C[C@]3(C)C(=O)NO)cc2)c2ccccc2n1 | 762 |  |  | 2.51
Cc1cc(COc2ccc(S(=O)(=O)N[C@@H]3CCN(C=O)C[C@]3(O)C(=O)NO)cc2)c2ccccc2n1 | 160 |  |  | 1.26
Cc1cc(COc2ccc(S(=O)(=O)N(C)C3C(C(=O)NO)[C@@H]4CC[C@H]3O4)cc2)c2ccccc2n1 (relative stereo; form 2) | 18 |  | 2 | 
CC[C@]1(C(=O)NO)CCC[C@H]1NS(=O)(=O)c1ccc(OCc2cc(C)nc3ccccc23)cc1 | 1000 |  |  | 2.51
Cc1cc(COc2ccc(S(=O)(=O)NC3CCN(CCO)CC3C(=O)NO)cc2)c2ccccc2n1 (centres undefined) | 180 |  |  | 3.16
CC(=O)N1CC[C@@H](NS(=O)(=O)c2ccc(OCc3cc(C)nc4ccccc34)cc2)[C@@](C)(C(=O)NO)C1 | 1000 |  |  | 6.31
Cc1cc(COc2ccc(S(=O)(=O)N(C)[C@@H]3CCC[C@]3(CO)C(=O)NO)cc2)c2ccccc2n1 | 440 |  | 0.6 | 
Cc1cc(COc2ccc(S(=O)(=O)N[C@@H]3CCN(C(=O)OC(C)(C)C)C[C@@H]3C(=O)NO)cc2)c2ccccc2n1 | 460 |  | 0.5 | 
Cc1cc(COc2ccc(S(=O)(=O)N[C@@H]3CCNC[C@]3(O)C(=O)NO)cc2)c2ccccc2n1 | 1000 |  |  | 100
CC#CCOc1ccc(S(=O)(=O)[C@@H]2C[C@@H](C(=O)NO)N(C(C)=O)C2)cc1 |  | 10000 |  | 
CC#CCOc1ccc(S(=O)(=O)[C@H]2C[C@@H](C(=O)NO)N(C(C)=O)C2)cc1 |  | > 10000 |  | 
Cc1cc(COc2ccc(S(=O)(=O)N[C@]3(C)CCCC[C@@H]3C(=O)NO)cc2)c2ccccc2n1 (racemic) | 25 |  | 0.6 | 
Cc1cc(COc2ccc(S(=O)(=O)N[C@@H]3CN(C=O)C[C@@H]3C(=O)NO)cc2)c2ccccc2n1 (relative stereo) | 20 |  |  | 
CC#CCOc1ccc(S(=O)(=O)[C@H]2C[C@H](C(=O)NO)N(C(C)=O)C2)cc1 |  | > 10000 |  | 
Cc1cc(COc2ccc(S(=O)(=O)N(C)[C@H]3CCCC[C@@H]3C(=O)NO)cc2)c2ccccc2n1 (relative stereo) | 911 |  | 1.4 | 
